In publication PMC10541198, “Specific quinone reductase 2 inhibitors reduce metabolic burden and reverse Alzheimer’s disease phenotype in mice” (The Journal of Clinical Investigation, 2023):
“And” between values parts separate entries of the source, which are not always exact repeats. Identical values can stand only once.

Legend:
5xFAD mice = assay: Novel object recognition in 5xFAD mice; format: in vivo, mouse; parameters: key: (novel − familiar)/(novel + familiar) exploration time, −1 to 1; conditions: 5xFAD 1 month
Protocol: We next aimed to test the effect of QR2 inhibition in AD model mice using YB-537, taking advantage of its extremely high specificity, solubility, and lack of toxicity. First, we determined YB-537 pharmacokinetics (PK) and oral bioavailability and assessed any acute observable toxicity in mice. […] We therefore opted to chronically deliver YB-537 to AD-model mice via their drinking water, so they may freely ingest the inhibitor at 50 mg/kg, with minimal intervention or trauma, for 1 month. We chose 9-month-old 5xFAD ([27]) male and female mice in double-blind experiments, so that well-progressed symptoms and pathologies would be present, to mimic clinically relevant cases in human patients ([35]), as has been previously described in this mouse model. Other than an improvement in nest quality ([36]) over time seen in animals receiving YB-537 (starting at age 8 months and ending at age 9 months), no changes to general physical parameters or wellbeing were observed over the 1 month of YB-537 ingestion (Supplemental Figure 6, A–J). […] Since learning in this paradigm was slow, and performance was poor even following 6 days of training (using 4 learning trials a day), a test day was not carried out and instead only the learning rate was measured. […]
Following a 10 minute exploration of a 50 × 50 cm open-field arena, mice were returned to the arena the next day, which contained 2 identical objects. […] Mouse movement, exploration, and nuzzling was automatically recorded with an Ikegami ICD-49E camera with EthoVision 14 (Noldus Information Technology). Discrimination of the novel object was assessed by calculating (time exploring novel object – time exploring familiar object)/(time exploring novel object + time exploring familiar object). […]
Mice were individually placed within a cage and taken to a dimly lit room containing an open field arena 50 x 50 cm in size. […] Th e fl oor was ei ther whit e or black,dependingon mous e coat c ol or, to allow automatic analysisof movement par am et ers, apar t from rearing which was manually counted. […]

4-HNE = assay: Immunoblot of 4-HNE 3 hours after CA1 microinjection; format: in vivo, mouse
Protocol: In order to evaluate the efficacy of some of the leading QR2is in vivo, we carried out double-blind experiments using 2 different modalities (Supplemental Methods), measuring memory that is dependent on different brain areas. First, cortical memory was tested using incidental novel taste learning (see Methods), in which an unfamiliar, but palatable and safe, taste is given for the first time, and the memory for this newly learned taste is then assessed 2 days later. This is done by measuring the volume of the taste consumed upon subsequent exposure to it ([32]) (Figure 4A). […] Next, hippocampal-dependent learning was evaluated using delay fear conditioning (DFC; see Methods) ([33]). Mice were cannulated to the CA1 region of the hippocampus and were microinjected with YB-537 (1 μL of 5 μM, Figure 4, D and H) or vehicle. […] In order to evaluate any possible effect of acute QR2i microinjection on metabolic stress in the mouse brain, ISR activation was measured by quantifying total and phosphorylated eukaryotic initiation factor 2 α (eIF2α) levels (Supplemental Figure 3A) and lipid peroxidation product, 4-hydroxynonenal (4-HNE; Supplemental Figure 3B), by immunoblot 3 hours after the injection. […]

Cc1ccc(-c2cn3cccc(C)c3n2)cc1S(=O)(=O)N1CCNCC1 [YB-537]
novel object discrimination (individual mice) (5xFAD mice; both sexes): -0.101 and 0.504 and 0.236 and 0.249 and -0.330 and 0.874 and 0.145 and -0.163 and -0.038 and -0.010 and 0.265 and -0.414 and 0.439 and 0.710 and 0.259 and 0.231 | novel object discrimination (individual mice) (5xFAD mice; females): 0.504 and 0.236 and 0.439 and 0.710 and 0.259 and 0.231 and -0.101 | novel object discrimination (individual mice) (5xFAD mice; males): -0.038 and -0.010 and 0.265 and -0.414 and 0.249 and -0.330 and 0.874 and 0.145 and -0.163 | 4-HNE levels (4-HNE; 3 hours after microinjection in the mouse hippocampus): insignificant reduction | Sup. Fig. 3B, immunoblot signal (4-HNE; individual animals): 1.944 and 1.965 and 2.545 and 1.185 and 0.887 and 2.092 and 2.161
